Where two headings read alike, the source gives them in different places.
Tested on: Sprague-Dawley rats
Assay: Organ weights
Format: in vivo, Rattus norvegicus
Design: key to Dose response, Ovaries weight: D: significant dose response (for results see Table 2 in the text); T: significant trend
Conditions: for Emax: Rattus norvegicus; for Organ weight, Adrenals / Organ weight, Brain / Organ weight, Heart / Organ weight, Kidneys / Organ weight, Ovaries / Organ weight, Pituitary / Organ weight, Spleen / Organ weight, Thymus / Organ weight, Thyroid gland / Organ weight, Uterus: group mean
Procedure: At the end of the treatment period (males on study day 28–31, females on study day 28–32) the rats were anesthetized with CO2/O2 (70/30%). Blood samples were drawn from the left ventricle using Venoject needles (Terumo) and Vacuette EDTA and serum blood collection tubes, and the rats were killed by exsanguination. EDTA blood was used for hematology investigations (see below). Serum was separated, divided into aliquots, frozen in liquid nitrogen and stored at −70°C for further analysis (see below). A complete necropsy (macroscopic observations, tissue sampling for molecular biology, biochemistry, histopathology, analytical chemistry and organ weights) was performed on each rat. The weights of the following organs were recorded: adrenals, brain, epididymides, heart, kidneys, liver, lungs, ovaries, pituitary, prostate (ventral), seminal vesicles, spleen, testes, thymus, thyroids (with parathyroids) and uterus. For molecular biology and biochemical analyses samples from brain, liver, kidney, bones, and several other tissues were snap frozen in liquid nitrogen and stored at −80°C for further analysis. […] Tissue samples for histopathology were preserved in 10% neutral buffered formalin except testis and epididymis, which were fixed in Bouin's solution for 24 h after which they were transferred into 70% ethanol.
Data were also analyzed using the BMD method, which is based on dose-response modeling of the full data set using a nested family of exponential and Hill models. The analyses were done on data of males and females combined, using sex as a covariate. […] In that case, different Critical Effect Doses (CEDs) and CEDs at the lowest bound of the confidence interval (CED-L) were generated for each sex. If no difference between sexes is detected, a CED and CED-Ls for the combined data is generated. However, this was also done if the curve fits are close, and separate analyses for males and females were then performed manually. CEDs and CED-Ls were calculated at the predefined Critical Effect Size (CES) of 5% (EFSA standard) or 10%.

[1] = F, CES 5%, model E2, adipose tissue concentration based
[2] = F, CES 5%, model E4, adipose tissue concentration based
[3] = F, CES 10%, model E2, adipose tissue concentration based
[4] = F, CES 10%, model E4, adipose tissue concentration based
[5] = M, CES 5%, model E2, adipose tissue concentration based
[6] = M, CES 5%, model E4, adipose tissue concentration based
[7] = M, CES 10%, model E2, adipose tissue concentration based
[8] = M, CES 10%, model E4, adipose tissue concentration based
[9] = females, total dose 0-1700 mg/kg bw
[10] = females, CES 5%, total dose based
[11] = females, CES 10%, total dose based
[12] = females, adipose tissue concentration based
[13] = females, total dose 10 mg/kg bw
[14] = females, total dose 30 mg/kg bw
[15] = females, total dose 100 mg/kg bw
[16] = females, total dose 300 mg/kg bw
[17] = females, total dose 1000 mg/kg bw

Structure (SMILES): Clc1cc(Cl)c(-c2cc(Cl)c(Cl)c(Cl)c2Cl)cc1Cl [PCB 180, 2,2′,3′,4,4′,5,5′-heptachlorobiphenyl]
- CED, Thyroid gland weight [1]: 3010 µg/g lipid
- CED-L, Thyroid gland weight [1]: 1698 µg/g lipid
- CED, Liver weight [2]: 512 µg/g lipid
- CED, Ovaries weight [2]: 201 µg/g lipid
- CED-L, Liver weight [2]: 263 µg/g lipid
- CED-L, Ovaries weight [2]: 31.7 µg/g lipid
- CED, Thyroid gland weight [3]: 6190 µg/g lipid
- CED-L, Thyroid gland weight [3]: 3488 µg/g lipid
- CED, Liver weight [4]: 1090 µg/g lipid
- CED, Ovaries weight [4]: 510 µg/g lipid
- CED-L, Liver weight [4]: 565 µg/g lipid
- CED-L, Ovaries weight [4]: 79.6 µg/g lipid
- CED, Thyroid gland weight [5]: 1030 µg/g lipid
- CED-L, Thyroid gland weight [5]: 720 µg/g lipid
- CED, Liver weight [6]: 42.3 µg/g lipid
- CED-L, Liver weight [6]: 19.8 µg/g lipid
- CED, Thyroid gland weight [7]: 2010 µg/g lipid
- CED-L, Thyroid gland weight [7]: 1407 µg/g lipid
- CED, Liver weight [8]: 88.4 µg/g lipid
- CED-L, Liver weight [8]: 41.3 µg/g lipid
- Emax (F, model E2, controls vs high dose according to the fitted model, read-out: Maximum response, Relative thyroid gland weight): -16.5%
- Emax (F, model E2, controls vs high dose according to the fitted model, read-out: Maximum response, Thyroid gland weight): -17.6%
- Emax (F, model E4, controls vs high dose according to the fitted model, read-out: Maximum response, Liver weight): 43.1%
- Emax (F, model E4, controls vs high dose according to the fitted model, read-out: Maximum response, Ovaries weight): 17%
- Emax (F, model E4, controls vs high dose according to the fitted model, read-out: Maximum response, Relative liver weight): 44.8%
- Emax (females, controls vs high dose, fitted model, read-out: Liver weight, Maximum response): 45%
- Emax (females, controls vs high dose, fitted model, read-out: Ovaries weight, Maximum response): 17%
- Emax (females, controls vs high dose, fitted model, read-out: Relative liver weight, Maximum response): 46.2%
- Emax (females, controls vs high dose, fitted model, read-out: Relative thyroid gland weight, Maximum response): -17%
- Emax (females, controls vs high dose, fitted model, read-out: Thyroid gland weight, Maximum response): -17.9%
- Emax (males, controls vs high dose, fitted model, read-out: Liver weight, Maximum response): 66%
- Emax (males, controls vs high dose, fitted model, read-out: Relative liver weight, Maximum response): 67%
- Emax (males, controls vs high dose, fitted model, read-out: Relative thymus weight, Maximum response): 17.1%
- Emax (males, controls vs high dose, fitted model, read-out: Relative thyroid gland weight, Maximum response): 45.2%
- Emax (F, model E5, controls vs high dose according to the fitted model, read-out: Maximum response, Relative ovaries weight): 16%
- Emax (model E2, controls vs high dose according to the fitted model, read-out: Maximum response, Relative thymus weight): 17.6%
- Emax (model E2, controls vs high dose according to the fitted model, read-out: Maximum response, Relative thyroid gland weight): 45.7%
- Emax (model E2, controls vs high dose according to the fitted model, read-out: Maximum response, Thyroid gland weight): 41.9%
- Emax (model E4, controls vs high dose according to the fitted model, read-out: Maximum response, Liver weight): 65%
- Emax (model E4, controls vs high dose according to the fitted model, read-out: Maximum response, Relative liver weight): 66%
- Thyroid weight, max. decrease (females): 18%
- Dose response, Ovaries weight [9]: D
- Dose response, Thyroid gland weight [9]: D, T
- Liver weight, CED [10]: 225 mg/kg bw
- Liver weight, CED-L [10]: 188 mg/kg bw
- Ovaries weight, CED [10]: 46.8 mg/kg bw
- Ovaries weight, CED-L [10]: 6.15 mg/kg bw
- Thyroid gland weight, CED [10]: 443 mg/kg bw
- Thyroid gland weight, CED-L [10]: 257 mg/kg bw
- Liver weight, CED [11]: 439 mg/kg bw
- Liver weight, CED-L [11]: 368 mg/kg bw
- Ovaries weight, CED [11]: 120 mg/kg bw
- Ovaries weight, CED-L [11]: 15.4 mg/kg bw
- Thyroid gland weight, CED [11]: 910 mg/kg bw
- Thyroid gland weight, CED-L [11]: 528 mg/kg bw
- Liver weight, CED [12]: 512 µg/g lipid
- Ovary weight, CED [12]: 201 µg/g lipid
- Thyroid weight, CED [12]: 3010 µg/g lipid
- Liver weight, Maximum response (females, controls vs high dose, fitted model): 44.6%
- Organ weight, Adrenals (females, total dose 3 mg/kg bw): 0.0648 g
- Organ weight, Brain (females, total dose 3 mg/kg bw): 1.60 g
- Organ weight, Heart (females, total dose 3 mg/kg bw): 0.958 g
- Organ weight, Kidneys (females, total dose 3 mg/kg bw): 1.43 g
- Organ weight, Ovaries (females, total dose 3 mg/kg bw): 0.093 g
- Organ weight, Pituitary (females, total dose 3 mg/kg bw): 0.0112 g
- Organ weight, Spleen (females, total dose 3 mg/kg bw): 0.728 g
- Organ weight, Thymus (females, total dose 3 mg/kg bw): 0.528 g
- Organ weight, Thyroid gland (females, total dose 3 mg/kg bw): 0.0202 g
- Organ weight, Uterus (females, total dose 3 mg/kg bw): 0.372 g
- Organ weight, Adrenals [13]: 0.0640 g
- Organ weight, Brain [13]: 1.59 g
- Organ weight, Heart [13]: 0.884 g
- Organ weight, Kidneys [13]: 1.46 g
- Organ weight, Ovaries [13]: 0.086 g
- Organ weight, Pituitary [13]: 0.0124 g
- Organ weight, Spleen [13]: 0.722 g
- Organ weight, Thymus [13]: 0.470 g
- Organ weight, Thyroid gland [13]: 0.0188 g
- Organ weight, Uterus [13]: 0.492 g
- Organ weight, Adrenals [14]: 0.0618 g
- Organ weight, Brain [14]: 1.61 g
- Organ weight, Heart [14]: 0.870 g
- Organ weight, Kidneys [14]: 1.45 g
- Organ weight, Ovaries [14]: 0.096 g
- Organ weight, Pituitary [14]: 0.0124 g
- Organ weight, Spleen [14]: 0.696 g
- Organ weight, Thymus [14]: 0.494 g
- Organ weight, Thyroid gland [14]: 0.0169 g
- Organ weight, Uterus [14]: 0.353 g
- Organ weight, Adrenals [15]: 0.0612 g
- Organ weight, Brain [15]: 1.62 g
- Organ weight, Heart [15]: 0.896 g
- Organ weight, Kidneys [15]: 1.46 g
- Organ weight, Ovaries [15]: 0.091 g
- Organ weight, Pituitary [15]: 0.0122 g
- Organ weight, Spleen [15]: 0.676 g
- Organ weight, Thymus [15]: 0.480 g
- Organ weight, Thyroid gland [15]: 0.0213 g
- Organ weight, Uterus [15]: 0.368 g
- Organ weight, Adrenals [16]: 0.0686 g
- Organ weight, Brain [16]: 1.60 g
- Organ weight, Heart [16]: 0.908 g
- Organ weight, Kidneys [16]: 1.45 g
- Organ weight, Ovaries [16]: 0.110 g
- Organ weight, Pituitary [16]: 0.0121 g
- Organ weight, Spleen [16]: 0.650 g
- Organ weight, Thymus [16]: 0.498 g
- Organ weight, Thyroid gland [16]: 0.0176 g
- Organ weight, Uterus [16]: 0.352 g
- Organ weight, Adrenals [17]: 0.0641 g
- Organ weight, Brain [17]: 1.59 g
- Organ weight, Heart [17]: 0.896 g
- Organ weight, Kidneys [17]: 1.49 g
- Organ weight, Ovaries [17]: 0.103 g
- Organ weight, Pituitary [17]: 0.0112 g

Source: paper PMC4138103 (PLoS ONE, 2014)
